In assay [1] the test system is A549 cells. Kind of assay: Cytotoxicity against A549 cells, Alamar Blue. Format: cell-based. Particulars: Supplementary Table 1, compound 0.5 mM, percentage of controls (n=1); for viability at 500 µM: Homo sapiens, A549, 65 h. Put shortly:
(§1)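 Seed HeLa/A549 at 2 × 10^4 cells/well in DMEM/10% FCS/2 mM L-Gln; treat ~65 h; add Alamar Blue, 5 h more.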
For orientation: Alamar Blue is a resazurin reagent that responds to reducing activity.

Assay [2] has as its system HeLa cells. Kind of assay: cells. Particulars: for HeLa Cells Alamar Blue: Supplementary Table 1; for viability at 500 µM: Homo sapiens, HeLa, 65 h. The procedure, abridged:
as §1

Assay [3] deals with T1, TbINO1 (Trypanosoma brucei brucei, UniProt Q5QQ46).
T1 sequence (Q5QQ46 1-528): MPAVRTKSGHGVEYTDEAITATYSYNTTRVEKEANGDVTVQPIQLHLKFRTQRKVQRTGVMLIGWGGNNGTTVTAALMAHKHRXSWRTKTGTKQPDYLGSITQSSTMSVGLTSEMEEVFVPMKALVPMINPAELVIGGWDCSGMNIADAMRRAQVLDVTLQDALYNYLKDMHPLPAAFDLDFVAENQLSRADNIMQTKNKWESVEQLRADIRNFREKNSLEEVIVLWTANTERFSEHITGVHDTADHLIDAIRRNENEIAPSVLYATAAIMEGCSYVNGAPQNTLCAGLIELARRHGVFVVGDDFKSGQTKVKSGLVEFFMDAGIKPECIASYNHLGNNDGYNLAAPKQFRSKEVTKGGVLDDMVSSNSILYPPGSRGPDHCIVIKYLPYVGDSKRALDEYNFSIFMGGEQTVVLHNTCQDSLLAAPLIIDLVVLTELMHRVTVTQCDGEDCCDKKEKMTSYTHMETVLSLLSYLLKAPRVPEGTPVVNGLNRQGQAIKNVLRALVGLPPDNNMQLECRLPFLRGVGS
The experiment in a line: biochemical. Format: binding.

[4] abbreviates: compound 0.5 mM, percentage of controls, mean ± SD (n=3) or SE (n=2).
[5] abbreviates: Supplementary Table 1, compound 1mM, mean ± SD from Boltzman curve fitting.
The mark [6] stands for this setting: read-out: HeLa Cells Alamar Blue.
The mark [7] stands for this setting: read-out: Tb Ino1 Tm Shift [˚C].
[8] abbreviates: read-out: HeLa Cells Alamar Blue, Supplementary Table 1, compound 0.5 mM, percentage of controls, mean ± SD (n=3) or SE (n=2).

The record followed here is publication PMC3199943, “Screening the MayBridge Rule of 3 Fragment Library for Compounds That Interact with the Trypanosoma brucei myo-Inositol-3-Phosphate Synthase and/or Show Trypanocidal Activity” (Molecular Biology International, 2011).

Counter-ions that a name gives are not always drawn. Like-named read-outs stand apart in the source and are kept apart here.

Take `CCOC(=O)c1c(N)sc(C)c1C` [compound 617, ethyl 2‐amino‐4,5‐dimethylthiophene‐3‐carboxylate]: the “A549 Cells Alamar Blue” value in assay [1] was 75.2 percentage of controls. In addition, in assay [2] (setting [4]), the “HeLa Cells Alamar Blue” value is reported as 69.1 ± 9.3 percentage of controls. Also, in assay [3] (setting [5]), the “Tb Ino1 Tm Shift [˚C]” value is 1.47 ± 0.07 °C.
As to `OCc1ccc(N2CCOCC2)s1` [compound 618, (5‐morpholinothien‐2‐yl)methanol], the viability at 500 µM worked out at 76.3% in assay [1] and 70.4 ± 13.2% in assay [2] (setting [6]). The ΔTm at 1000 µM in assay [3] (setting [7]) stood at 1.12 ± 0.11 °C.
Taken in the same sequence, the figures for `CC(C)(C)OC(=O)Nc1ccsc1` [compound 619, tert‐butyl N‐(3‐thienyl)carbamate] were 74.9%, 80 ± 17.5% and 0.21 ± 0.07 °C.
Consider `CC(C)(C)OC(=O)Nc1cccs1` [compound 620, tert-butyl N-(2-thienyl)carbamate], for which the values for the viability at 500 µM in assay [1], in assay [2] (setting [6]) and in assay [2] (read-out: HeLa Cells Alamar Blue (% survival)) were 109%, 71.3 ± 13.6% and 71.3 ± 13.6%, respectively. For the same compound, the ΔTm at 1000 µM in assay [3] (read-out: TbIno1 Tm shift [°C]) turned out to be 2.08 ± 0.1 °C.
Consider `Cc1nc(-c2ccc(C#N)cc2)cs1` [compound 625, 4‐(2‐methyl‐1,3‐thiazol‐4‐yl)benzonitrile], for which the results for the viability at 500 µM in assay [1] and in assay [2] (setting [6]) were 79.4% and 74.1 ± 7.1%, respectively. Further, in assay [3] (setting [7]), the ΔTm at 1000 µM is 1.06 ± 0.07 °C.
On to `NCc1nc2ccccc2s1` [compound 626, 1,3-benzothiazol-2-ylmethylamine hydrochloride], for which the viability at 500 µM in assay [1] is 85.7%; in assay [2] (read-out: HeLa Cells Alamar Blue (% survival), compound 0.5 mM, percentage of controls), 95.1 ± 15.5%; in assay [2] (setting [8]), 95.1 ± 15.5%. Further, the ΔTm at 1000 µM in assay [3] (read-out: TbIno1 Tm shift [°C]) turned out to be 2.03 ± 0.08 °C.
For `COC(=O)c1ccccc1-n1cccc1` [compound 628, methyl 2‐(1H‐pyrrol‐1‐yl)benzoate], the viability at 500 µM in assay [1] was found to be 85.1%; in assay [2] (setting [6]) it was 70.4 ± 14%. Further, the ΔTm at 1000 µM in assay [3] (setting [7]) is 0.84 ± 0.08 °C.
As for `CNCc1cc(-c2ccccc2)nn1C` [compound 631, N‐methyl‐N‐[(1‐methyl‐3‐phenyl‐1H‐pyrazol‐5‐yl)methyl]amine], in assay [1], the “A549 Cells Alamar Blue” value is on record as 100.2 percentage of controls. Further, the “HeLa Cells Alamar Blue” value in assay [2] (setting [4]) is on record as 66.2 ± 16.3 percentage of controls. For the same compound, the “Tb Ino1 Tm Shift [˚C]” value in assay [3] (setting [5]) was 0.5 ± 0.08 °C.
The corresponding values for `COC(=O)c1cccc(CN)c1.Cl` [compound 632, 3‐Aminomethylbenzoic acid methyl ester hydrochloride] are 107.3 percentage of controls, 44.8 ± 10.2 percentage of controls and 0.22 ± 0.07 °C.
Taken in the same sequence, the figures for `N#CCOc1ccc(C(F)(F)F)cn1` [compound 634, 2‐{[5‐(trifluoromethyl)‐2‐pyridyl]oxy}acetonitrile] were 87.2 percentage of controls, 73.3 ± 1.6 percentage of controls and 0.24 ± 0.09 °C.
With `Cc1cc(C(=O)O)c(-c2ccccc2)o1` [compound 635, 5‐methyl‐2‐phenyl‐3‐furoic acid], the viability at 500 µM in assay [1] was found to be 90.1%; in assay [2] (setting [6]), 17.7 ± 16.2%. Besides, in assay [3] (setting [7]), the ΔTm at 1000 µM stood at 0.38 ± 0.04 °C.
With `CNCc1c(-c2ccccc2)noc1C` [compound 637, N‐methyl‐N‐[(5‐methyl‐3‐phenylisoxazol‐4‐yl)methyl]amine], the “A549 Cells Alamar Blue” value in assay [1] is 112.6 percentage of controls. For the same compound, the “HeLa Cells Alamar Blue” value in assay [2] (setting [4]) is given as 79.8 ± 7.5 percentage of controls. Further, the “Tb Ino1 Tm Shift [˚C]” value in assay [3] (setting [5]) turned out to be 0.02 ± 0.07 °C.
As to `N#Cc1ccc(OC2CCOCC2)cc1` [compound 645, 4‐(tetrahydropyran‐4‐yloxy)benzonitrile], the viability at 500 µM in assay [1] came out at 102%; in assay [2] (setting [6]) it was 77.4 ± 15.8%. In assay [3] (setting [7]), the ΔTm at 1000 µM came out at 0.18 ± 0.05 °C.
With `CNCc1ccccc1-c1cccs1` [compound 646, N‐methyl‐N‐(2‐thien‐2‐ylbenzyl)amine], the viability at 500 µM in assay [1] came out at 66.9%; in assay [2] (setting [8]) it was 36.5 ± 9.5%. In assay [3] (Supplementary Table 1, compound 1mM, mean ± SD from Boltzman curve fitting, read-out: Tb Ino1 Tm Shift [˚C]), the ΔTm at 1000 µM worked out at 0.1 ± 0.05 °C.
